Experiments:
[1] = test system: RTC; assay: inside-out patch macroscopic current, Hill fit; format: cell-based, Bos taurus / Caenorhabditis elegans; settings: read-out: K 1/2; agonist; divalent-free solution pH 7.2; -80 or -100 mV; n = 8
[2] = test system: RTL1; assay: inside-out patch macroscopic current, Hill fit; format: cell-based, Bos taurus / Caenorhabditis elegans; settings: read-out: K 1/2; agonist; divalent-free solution pH 7.2; -80 or -100 mV; n = 4
[3] = test system: ROPTL2; assay: inside-out patch macroscopic current, Hill fit; format: cell-based, Bos taurus / Caenorhabditis elegans / Ictalurus punctatus; settings: read-out: K 1/2; agonist; divalent-free solution pH 7.2; -80 or -100 mV; n = 4
[4] = molecular target: T1, TAX-4 (C. elegans tax-4 CNG channel subunit) (Caenorhabditis elegans, UniProt Q03611); assay: inside-out patch macroscopic current, Hill fit; format: cell-based
T1 sequence (Q03611 1-733): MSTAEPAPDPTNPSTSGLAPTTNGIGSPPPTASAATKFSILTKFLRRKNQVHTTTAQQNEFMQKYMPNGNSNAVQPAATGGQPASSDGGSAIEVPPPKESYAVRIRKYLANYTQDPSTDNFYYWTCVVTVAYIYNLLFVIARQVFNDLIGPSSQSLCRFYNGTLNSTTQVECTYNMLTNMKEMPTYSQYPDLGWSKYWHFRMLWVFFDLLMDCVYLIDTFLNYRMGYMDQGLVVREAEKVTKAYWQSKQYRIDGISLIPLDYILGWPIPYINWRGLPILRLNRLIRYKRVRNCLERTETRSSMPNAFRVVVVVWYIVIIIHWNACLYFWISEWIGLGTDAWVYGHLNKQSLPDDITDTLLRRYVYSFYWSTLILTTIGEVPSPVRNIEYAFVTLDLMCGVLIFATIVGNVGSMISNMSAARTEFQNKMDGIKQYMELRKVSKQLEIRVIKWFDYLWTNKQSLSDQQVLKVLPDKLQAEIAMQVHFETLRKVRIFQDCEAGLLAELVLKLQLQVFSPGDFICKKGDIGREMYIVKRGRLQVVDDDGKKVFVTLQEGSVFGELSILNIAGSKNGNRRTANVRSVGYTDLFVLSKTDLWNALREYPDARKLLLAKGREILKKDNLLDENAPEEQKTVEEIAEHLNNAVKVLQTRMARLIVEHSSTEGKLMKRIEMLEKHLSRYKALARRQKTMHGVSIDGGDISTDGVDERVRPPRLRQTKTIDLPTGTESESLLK

[5] = test system: RTB; assay: inside-out patch macroscopic current, Hill fit; format: cell-based, Bos taurus / Caenorhabditis elegans; settings: read-out: K 1/2; agonist; divalent-free solution pH 7.2; -80 or -100 mV; n = 5
[6] = test system: RTL; assay: inside-out patch macroscopic and single-channel currents, Hill fit; format: cell-based, Bos taurus / Caenorhabditis elegans; settings: read-out: K 1/2; agonist; divalent-free solution pH 7.2; -80 or -100 mV; n = 8
[7] = test system: TRC; assay: inside-out patch macroscopic current, Hill fit; format: cell-based, Caenorhabditis elegans / Bos taurus; settings: read-out: K 1/2; agonist; divalent-free solution pH 7.2; -80 or -100 mV; n = 4
[8] = test system: RTL2; assay: inside-out patch macroscopic current, Hill fit; format: cell-based, Bos taurus / Caenorhabditis elegans; settings: read-out: K 1/2; agonist; divalent-free solution pH 7.2; -80 or -100 mV; n = 4

EC50 [1]: 1.3 µM
EC50 [2]: 24 µM
EC50 [3]: 3 µM
EC50 [4]: 0.4 µM
EC50 [5]: 63 µM
EC50 [6]: 1 µM
EC50 [7]: 4.7 µM
EC50 [8]: 4 µM
Compound: Nc1nc2c(ncn2[C@@H]2O[C@@H]3COP(=O)(O)O[C@H]3[C@H]2O)c(=O)[nH]1 [cGMP]
